Measurements published in ChEMBL document CHEMBL1135134, “Novel phthalimide derivatives, designed as leukotriene D(4) receptor antagonists” (Bioorg Med Chem Lett, 2002).

Key:
Cavia porcellus [1] = species: Cavia porcellus; assay: 50% inhibitory concentration on the LTD4 (100 nM) induced contraction of guinea-pig tracheal strip bioassay; type: functional; conditions: Trachea
Cavia porcellus [2] = species: Cavia porcellus; assay: Inhibitory contractile effect of compound in guinea-pig tracheal strips induced by LTD4 (100 nM) (% inhibition obtained by comparison with control group); type: functional, Trachea
Cavia porcellus [3] = species: Cavia porcellus; assay: Inhibitory contractile effect of compound in guinea-pig tracheal strips induced by LTD4 (100 nM) (% contraction, obtained in the vehicle presence 100.0%); type: functional, Trachea
Cavia porcellus [4] = species: Cavia porcellus; assay: Maximum effect on the LTD4 (100 nM) induced contraction of guinea-pig tracheal strips bioassay; type: functional; conditions: Trachea

Q: With `O=C1c2ccccc2C(=O)N1CCc1ccc(OCCCc2nn[nH]n2)cc1` as the compound, how does the IC50 (Cavia porcellus [1]) read?
A: 31.2 µM

Q: And the Inhibition (Cavia porcellus [2])?
A: 47.6%

Q: What about the Contraction (Cavia porcellus [3]) of the same compound?
A: 52.4%

Q: And the Emax (Cavia porcellus [4])?
A: 100%

Q: For `O=C(O)CCCCOc1ccc(CCN2C(=O)c3ccccc3C2=O)cc1`, which Inhibition (Cavia porcellus [2]) is on record?
A: 2.4%

Q: And the Contraction (Cavia porcellus [3])?
A: 97.6%

Q: With `CC(Oc1ccc(CCN2C(=O)c3ccccc3C2=O)cc1)C(=O)O` (configuration not stated) as the compound, how does the Inhibition (Cavia porcellus [2]) read?
A: 8.6%

Q: What about the Contraction (Cavia porcellus [3]) of the same compound?
A: 91.4%

Q: Which results are given for `O=C(O)COc1ccc(CCN2C(=O)c3ccccc3C2=O)cc1`?
A: Inhibition (Cavia porcellus [2]): -1.5%; Contraction (Cavia porcellus [3]): 101.5%

Q: `O=C(O)c1ccc(COc2ccc(CCN3C(=O)c4ccccc4C3=O)cc2)cc1` was tested. Which Inhibition (Cavia porcellus [2]) did it give?
A: 6.3%

Q: And the Contraction (Cavia porcellus [3])?
A: 93.7%

Q: Which results are given for `O=C(O)CCCOc1ccc(CCN2C(=O)c3ccccc3C2=O)cc1`?
A: Inhibition (Cavia porcellus [2]): 19.7%; Contraction (Cavia porcellus [3]): 80.3%

Q: For `COc1cc(C(=O)NS(=O)(=O)c2ccccc2C)ccc1Cc1cn(C)c2ccc(NC(=O)OC3CCCC3)cc12` [ZAFIRLUKAST], which IC50 (Cavia porcellus [1]) is on record?
A: 0.00103 µM

Q: `O=C(O)CCCC(=O)Oc1ccc(CCN2C(=O)c3ccccc3C2=O)cc1` was tested. Which Inhibition (Cavia porcellus [2]) did it give?
A: 26.1%

Q: What about the Contraction (Cavia porcellus [3]) of the same compound?
A: 73.9%
